Consider three compounds from PMC1175996, “Guanine-nucleotide exchange on ribosome-bound elongation factor G initiates the translocation of tRNAs” (Journal of Biology, 2005).

Each structure is given as a SMILES string.

In experiment [1] the target is T1, EF-G on 70S ribosome complexes (preT / postTerm) (Escherichia coli, UniProt P0A6M8).
T1 construct: gene fusA
Description: nitrocellulose filtration of ribosome-bound EF-G•[3H]-GDPNP. Format: binding. To be noted: labelled compound; 2 μM EF-G; 92 nM postTerm or naked 70S ribosomes; 1 μM [3H]-GDPNP; 37°C.

Experiment [2] deals with T1, EF-G on 70S ribosome complexes (preT / postTerm). The experiment is described as follows: translocation rate by RF2-dependent fMet-Ile release, EF-G recycling. It is filed as biochemical. As to conditions: read-out: I50.
Experiment [3] deals with T2, EF-G (free elongation factor G) (Escherichia coli, UniProt P0A6M8).
T2 construct: gene fusA; purified EF-G, free in solution (no ribosome)
T2 sequence (P0A6M8 2-704): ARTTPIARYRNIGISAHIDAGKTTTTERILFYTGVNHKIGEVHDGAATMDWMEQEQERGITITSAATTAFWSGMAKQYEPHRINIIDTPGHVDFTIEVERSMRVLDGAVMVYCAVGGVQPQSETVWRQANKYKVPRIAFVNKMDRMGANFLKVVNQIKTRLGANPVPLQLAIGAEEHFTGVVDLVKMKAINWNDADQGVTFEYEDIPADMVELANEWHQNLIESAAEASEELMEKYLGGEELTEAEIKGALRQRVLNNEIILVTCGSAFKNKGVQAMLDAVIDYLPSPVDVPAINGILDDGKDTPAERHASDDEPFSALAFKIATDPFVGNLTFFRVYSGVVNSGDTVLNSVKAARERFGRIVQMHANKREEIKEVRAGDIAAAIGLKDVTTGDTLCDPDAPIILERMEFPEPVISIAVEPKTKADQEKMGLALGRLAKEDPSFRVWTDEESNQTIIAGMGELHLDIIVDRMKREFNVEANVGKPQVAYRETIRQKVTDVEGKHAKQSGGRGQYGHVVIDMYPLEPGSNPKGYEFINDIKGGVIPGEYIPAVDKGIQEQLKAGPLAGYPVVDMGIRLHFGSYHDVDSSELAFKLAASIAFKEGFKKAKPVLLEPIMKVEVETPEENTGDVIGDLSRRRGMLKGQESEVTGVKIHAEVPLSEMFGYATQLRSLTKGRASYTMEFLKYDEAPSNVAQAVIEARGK
Description: nitrocellulose filtration, Scatchard plot. It is filed as binding.

For experiment [4], the target named is T2, EF-G (free elongation factor G). The experiment is described as follows: nitrocellulose filtration, chase of [3H]-GDP by purified unlabelled GTP. Format: binding. To be noted: read-out: KGTP.

T1 sequence (P0A6M8 2-704, one chain of several): as the sequence (P0A6M8 2-704) above

On to `Nc1nc2c(ncn2[C@@H]2O[C@H](COP(=O)(O)OP(=O)(O)NP(=O)(O)O)[C@@H](O)[C@H]2O)c(=O)[nH]1` [GDPNP], for which the “nitrocellulose filtration of ribosome-bound EF-G•[3H]-GDPNP” value in experiment [1] was “EF-G, bound to either type of ribosome, had much higher affinity for GDPNP than for GDP”.

`Nc1nc2c(ncn2[C@@H]2O[C@H](COP(=O)(O)OP(=O)(O)O)[C@@H](O)[C@H]2O)c(=O)[nH]1` [GDP]: the IC50 in experiment [2] amounted to 250 µM. This compound came in with a Kd in experiment [3] of roughly 9 µM.

In the case of `Nc1nc2c(ncn2[C@@H]2O[C@H](COP(=O)(O)OP(=O)(O)OP(=O)(O)O)[C@@H](O)[C@H]2O)c(=O)[nH]1` [GTP], the Kd in experiment [4] was greater than 600 µM.
